The text below walks through data of the kinase profiling compilation of Christmann-Franck et al. (2016).

Among the targets are FES (human) (UniProt P07332); MERTK (human) (UniProt Q12866); FGFR3 (human) (UniProt P22607); FLT4 (human) (UniProt P35916).
Common to all, as to test: radiometric filter-binding kinase assay, Kinaseprofiler

Chain of FGFR3 (human) (P22607 whole entry, looked up): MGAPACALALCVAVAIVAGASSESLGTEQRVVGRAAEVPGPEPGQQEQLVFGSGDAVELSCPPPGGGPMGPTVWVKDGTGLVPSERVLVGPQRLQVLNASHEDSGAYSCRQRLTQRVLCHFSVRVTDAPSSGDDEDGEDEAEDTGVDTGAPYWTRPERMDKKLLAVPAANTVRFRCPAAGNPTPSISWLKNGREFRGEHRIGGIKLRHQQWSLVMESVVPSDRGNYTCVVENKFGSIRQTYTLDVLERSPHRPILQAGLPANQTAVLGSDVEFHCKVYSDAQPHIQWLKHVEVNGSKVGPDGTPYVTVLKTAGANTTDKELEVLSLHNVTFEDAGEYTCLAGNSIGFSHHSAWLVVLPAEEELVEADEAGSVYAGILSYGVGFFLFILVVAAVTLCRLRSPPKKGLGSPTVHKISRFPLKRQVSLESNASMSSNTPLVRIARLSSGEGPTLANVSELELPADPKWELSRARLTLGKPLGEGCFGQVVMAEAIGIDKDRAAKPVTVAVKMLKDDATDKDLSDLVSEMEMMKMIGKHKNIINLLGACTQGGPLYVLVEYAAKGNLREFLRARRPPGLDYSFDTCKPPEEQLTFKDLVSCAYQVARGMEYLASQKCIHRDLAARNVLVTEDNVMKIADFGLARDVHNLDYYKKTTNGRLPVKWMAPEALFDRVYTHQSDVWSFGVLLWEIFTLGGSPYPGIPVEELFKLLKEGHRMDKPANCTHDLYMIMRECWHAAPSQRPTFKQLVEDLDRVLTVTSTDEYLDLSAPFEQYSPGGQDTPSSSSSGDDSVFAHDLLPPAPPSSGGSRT
Chain of MERTK (human) (Q12866 whole entry, looked up): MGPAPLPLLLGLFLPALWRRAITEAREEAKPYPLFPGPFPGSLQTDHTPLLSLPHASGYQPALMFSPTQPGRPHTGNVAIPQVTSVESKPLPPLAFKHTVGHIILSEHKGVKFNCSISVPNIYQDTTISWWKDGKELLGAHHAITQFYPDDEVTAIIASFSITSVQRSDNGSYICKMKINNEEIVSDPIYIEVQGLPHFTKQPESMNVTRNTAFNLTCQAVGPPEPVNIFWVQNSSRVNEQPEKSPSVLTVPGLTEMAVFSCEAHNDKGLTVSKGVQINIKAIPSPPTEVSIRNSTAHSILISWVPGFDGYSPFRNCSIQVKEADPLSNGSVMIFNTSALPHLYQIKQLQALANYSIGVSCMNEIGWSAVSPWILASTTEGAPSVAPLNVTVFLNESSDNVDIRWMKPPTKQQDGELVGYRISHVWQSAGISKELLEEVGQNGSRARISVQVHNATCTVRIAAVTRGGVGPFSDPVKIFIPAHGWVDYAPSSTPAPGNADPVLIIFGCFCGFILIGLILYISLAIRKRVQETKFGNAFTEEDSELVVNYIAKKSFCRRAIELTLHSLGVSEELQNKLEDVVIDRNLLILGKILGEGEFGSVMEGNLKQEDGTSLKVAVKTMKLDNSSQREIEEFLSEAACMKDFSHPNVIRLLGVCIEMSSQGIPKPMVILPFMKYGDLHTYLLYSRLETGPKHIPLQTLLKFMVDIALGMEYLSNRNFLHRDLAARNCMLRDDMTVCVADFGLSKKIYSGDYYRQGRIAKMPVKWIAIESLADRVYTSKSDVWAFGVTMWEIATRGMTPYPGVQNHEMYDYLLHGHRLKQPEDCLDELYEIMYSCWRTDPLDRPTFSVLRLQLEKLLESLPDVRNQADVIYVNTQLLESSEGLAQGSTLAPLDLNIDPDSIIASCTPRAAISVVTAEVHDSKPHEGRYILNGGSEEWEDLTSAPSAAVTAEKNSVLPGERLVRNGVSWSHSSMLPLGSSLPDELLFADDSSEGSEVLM
Chain of FLT4 (human) (P35916 whole entry, looked up): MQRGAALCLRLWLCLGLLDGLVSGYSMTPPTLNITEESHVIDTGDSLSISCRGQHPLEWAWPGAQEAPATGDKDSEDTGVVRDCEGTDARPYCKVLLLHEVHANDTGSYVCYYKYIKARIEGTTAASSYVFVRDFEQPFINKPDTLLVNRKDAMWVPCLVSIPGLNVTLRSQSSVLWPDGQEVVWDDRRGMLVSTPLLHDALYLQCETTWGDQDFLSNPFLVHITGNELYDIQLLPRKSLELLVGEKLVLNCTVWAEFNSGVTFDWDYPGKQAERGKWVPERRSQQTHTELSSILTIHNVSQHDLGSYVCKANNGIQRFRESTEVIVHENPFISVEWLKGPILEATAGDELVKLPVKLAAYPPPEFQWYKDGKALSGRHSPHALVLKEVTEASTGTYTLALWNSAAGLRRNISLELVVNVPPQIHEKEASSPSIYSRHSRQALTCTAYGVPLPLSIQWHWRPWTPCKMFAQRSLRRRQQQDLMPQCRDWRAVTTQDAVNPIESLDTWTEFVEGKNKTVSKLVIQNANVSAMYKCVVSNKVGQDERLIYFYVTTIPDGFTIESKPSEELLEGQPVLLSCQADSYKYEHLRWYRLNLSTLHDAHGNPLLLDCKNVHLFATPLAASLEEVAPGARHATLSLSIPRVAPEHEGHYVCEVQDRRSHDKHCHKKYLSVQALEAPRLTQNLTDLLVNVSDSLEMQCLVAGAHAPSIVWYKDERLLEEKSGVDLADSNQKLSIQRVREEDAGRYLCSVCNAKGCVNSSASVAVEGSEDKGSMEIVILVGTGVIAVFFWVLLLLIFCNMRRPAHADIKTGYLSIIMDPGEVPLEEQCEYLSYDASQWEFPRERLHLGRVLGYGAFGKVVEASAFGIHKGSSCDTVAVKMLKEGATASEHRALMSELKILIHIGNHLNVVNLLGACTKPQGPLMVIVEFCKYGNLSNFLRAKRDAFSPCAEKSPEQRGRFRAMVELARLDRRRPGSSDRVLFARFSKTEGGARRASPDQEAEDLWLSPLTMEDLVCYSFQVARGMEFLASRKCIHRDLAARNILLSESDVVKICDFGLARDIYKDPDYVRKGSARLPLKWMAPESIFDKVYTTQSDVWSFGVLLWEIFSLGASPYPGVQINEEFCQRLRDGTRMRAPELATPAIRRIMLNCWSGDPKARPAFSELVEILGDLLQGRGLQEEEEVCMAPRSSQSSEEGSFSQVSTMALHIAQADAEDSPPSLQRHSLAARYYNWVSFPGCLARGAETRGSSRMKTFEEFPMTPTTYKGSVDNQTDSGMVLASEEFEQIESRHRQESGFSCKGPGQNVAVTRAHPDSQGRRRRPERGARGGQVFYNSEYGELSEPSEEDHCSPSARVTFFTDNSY
Chain of FES (human) (P07332 whole entry, looked up): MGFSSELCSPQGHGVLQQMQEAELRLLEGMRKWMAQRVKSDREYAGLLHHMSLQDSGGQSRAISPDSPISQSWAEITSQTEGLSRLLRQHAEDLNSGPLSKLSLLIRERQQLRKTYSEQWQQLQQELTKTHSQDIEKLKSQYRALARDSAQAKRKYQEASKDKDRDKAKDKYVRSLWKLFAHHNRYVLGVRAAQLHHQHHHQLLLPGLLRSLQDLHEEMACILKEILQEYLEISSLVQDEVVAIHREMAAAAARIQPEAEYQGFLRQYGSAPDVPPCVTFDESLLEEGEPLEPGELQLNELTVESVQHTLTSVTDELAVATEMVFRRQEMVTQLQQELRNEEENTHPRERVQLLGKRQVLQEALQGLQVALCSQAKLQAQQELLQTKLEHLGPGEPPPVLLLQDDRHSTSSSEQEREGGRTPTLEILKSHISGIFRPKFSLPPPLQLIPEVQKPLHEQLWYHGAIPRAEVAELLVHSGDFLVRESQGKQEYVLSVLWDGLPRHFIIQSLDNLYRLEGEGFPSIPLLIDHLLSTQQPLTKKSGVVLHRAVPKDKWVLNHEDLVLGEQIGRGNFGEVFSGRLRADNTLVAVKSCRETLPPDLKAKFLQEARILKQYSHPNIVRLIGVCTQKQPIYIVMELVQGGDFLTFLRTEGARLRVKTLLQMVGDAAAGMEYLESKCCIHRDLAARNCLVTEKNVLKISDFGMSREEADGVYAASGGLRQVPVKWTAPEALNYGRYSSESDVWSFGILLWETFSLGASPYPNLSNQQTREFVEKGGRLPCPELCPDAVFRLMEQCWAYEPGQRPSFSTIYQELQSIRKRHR

For the compound `Cn1cc(-c2cnc3ccc4ccc(CS(=O)(=O)NCc5ccccn5)cc4c(=O)c3c2)cn1`, the 50% inhibitory concentration (IC50) is over 10 µM on FES (human), 880 nM at MERTK (human), 1000 nM at FGFR3 (human) and 920 nM at FLT4 (human).

The term IC50 denotes the concentration that gives 50% inhibition. Read a high IC50 as lower potency.
